US20210038732A1, “ANTICANCER MICRORNA AND LIPID FORMULATIONS THEREOF” (INTERNA TECHNOLOGIES B.V., priority 2018, published 2021)

Experiments:
[1] = tested on: 4T1 tumor microenvironment; experiment: FACS analysis of immune cells in orthotopic 4T1 tumors (Example 4.4); assay type: in vivo, mice
Method: Freshly isolated orthotopic 4T1 tumors were prepared for FACS analysis on day 5 (week 1) and day 12 (week 2) post miRNA-193a treatment when they reached a min tumor volume (TV) of 300 mm^3. Tumor samples were digested using murine tumor dissociation kit from Miltenyi (CAT #130-096-730). Following tumor cell digestion cells were re-suspended in 200 μl staining buffer with […] Fc-Block (Mouse BD Fc Block™ CAT #553141) and incubated at 4° C. for 15 minutes in the dark. Different markers (CD45, CD3, CD4, CD8, FoxP3, CD335, F4/80, CD11b, Gr-1, CD73, LAG3/CD223, IL-2, IFN-r, PD-1, L/D stain) have been used for FACS analysis. Antibody mixture for all markers except IL-2, IFN-r and LAG3 were diluted in Fc blocking buffer for each sample and stained for 30 min on ice, in the dark. Then, cells were gently washed by adding 2 ml of ice cold PBS to each tube. Each tube was centrifuged at 300 g for 5 minutes and supernatant was discarded. To detect intracellular markers (IL-2, IFN-r and LAG3) stimulation of the digested cells was performed. To do so, Leukocyte Activation Cocktail, with BD GolgiPlug™ was used. The cocktail was thawed at 37° C. in a water bath rapidly and for every 1 mL of cell culture (e.g., ˜10^6 cells/mL) 2 μL of cocktail was added and mixed thoroughly. To stimulate, cell culture mix was placed in a 37° C. humidified CO2 incubator for 4-6 hr. Then the cells were harvested and washed with FACS staining buffer. For staining, cell pellet was resuspended with pulse vortex and 200 ul of prepared Fixation/Permeabilization was added to each sample. Samples were incubated for 10 min at RT in the dark. Then, samples were washed twice by adding 1 ml of 1× Permeabilization Buffer (made from 10× Permeabilization Buffer, diluted with distilled H2O) followed by centrifugation and decanting of supernatant and each sample was incubated with the antibody cocktail containing FoxP3, IFN-r and IL-2 in 1× Permeabilization Buffer and incubated at RT for 30 minutes in the dark. Finally, cells were resuspended in […] of staining Buffer and analyzed on cytometer. The data was analysed by Kaluza flow cytometry software (from Beckman Coulter).
Six to eight weeks old female BALB/c mice (Shanghai Lingchang Bio-Technology Co. Ltd, Shanghai, China) were injected with 3×10^5 4T1 mouse tumor cells in PBS (0.1 mL/mouse) into the mammary fat pad. At the time of randomization, the TVs ranged between 69.9 and 173.9 mm3 (median 105.7, IQR=100.7-125.4). Body weights and TVs (caliper measurements) were determined 2-3 times/week. After randomization (day 9 after tumor inoculation) mice received different treatments under different dosing regimen (see Table 9 for dosing scheme). For all groups, 4 mice are sacrificed 48h after the 2nd miRNA-193a injection in the first week and in the 2nd week. Primary tumors were surgically removed from the mammary fat pad on day 20 after inoculation. After a recovery period of 3 days, treatment was resumed for 6 more weeks until day 63. Re-growth of (distant) tumors was monitored in addition to BW, and mice were sacrificed if end-points were met.

[2] = tested on: EMT6; experiment: Cell viability (MTS assay or cell count); assay type: cell-based; settings: 10 nM; TNBC EMT6; normalized to mock
Method: (§1) Depending on cancer cell type 3000-6000 cells were seeded in a 96 well plate. After cells attached, they were transfected with different concentrations of miRNA-193a and viability was measured at different time points. Viability measurement was performed using CellTiter 96 AQueous One Solution Cell Proliferation Assay (Promega). 20 μL of MTS reagent was added to 100 μL of media in each well in 96-well plate and incubated for 2 hours at 37° C. Absorbance was measured at 490 nm for each sample in 96 well plate reader.
(§2) Different biological effects of miRNA-193a-3p have been tested in various cancer cell lines (see Table 13). For this, various cells were treated with miRNA-193a at different concentrations (1, 3, 10 nM). For all experiments controls (untreated, mock and scrambled) were measured. […] Data shown in Table 13 are the results for miRNA-193a at 10 nM concentration at indicated time points. All the results have been quantified and normalized to the mock control.
(§3) miRNA-193a treatment in various cancer cell lines decreased cell viability over time as measured by either an MTS assay or by cell count. It enhanced apoptosis induction over time as measured by a caspase 3/7 apoptosis assay. […] It is of note that due to intrinsic characteristics and gene mutation status of each cell line, performing one method to detect apoptosis is not always ideal for all cell lines.

[3] = tested on: H1299; experiment: Cell viability (MTS assay or cell count); assay type: cell-based; settings: 10 nM; NSCLC H1299; normalized to mock
Method: as §1, §2, §3

[4] = tested on: H1975; experiment: Cell viability (MTS assay or cell count); assay type: cell-based; settings: 10 nM; NSCLC H1975; normalized to mock
Method: as §1, §2, §3

[5] = tested on: HCT116; experiment: Cell viability (MTS assay or cell count); assay type: cell-based; settings: 10 nM; Colon HCT116; normalized to mock
Method: as §1, §2, §3

[6] = tested on: Panc-1; experiment: Cell viability (MTS assay or cell count); assay type: cell-based; settings: 10 nM; Pancreas Panc-1; normalized to mock
Method: as §1, §2, §3

[7] = tested on: A2058 cells; experiment: In vitro transwell migration assay; assay type: cell-based, human; settings: miRNA-193a-3p at 10 nM; vs scrambled
Method: To check the migratory ability of cells, a Boyden Chamber assay was performed, which is based on a chamber of two medium-filled compartments separated by a […] pore size membrane (BD falcon). In this assay, depending on cell type 60,000-120,000 cells were seeded in the upper compartment of the membrane in serum free medium and were allowed to migrate through the pores of the membrane into the lower compartment, in which serum is present in the media. The serum acts as a chemoattractant. After an appropriate incubation time, the membrane between two compartments was fixed, stained and 6 different images from each membrane were taken. The number of migratory cells were counted using Image J analysis.
To assess the impact of miRNA-193a-3p on adenosine generation, the release of free phosphate in A2058 melanoma cells was measured as a read out for ATP, ADP, and AMP dephosphorylation in supernatants. […] Similar results were found by measuring the direct amount of adenosine in cell culture supernatants (FIG. 16B). Further, the role of miRNA-193a in A2058 cancer cell migration was investigated.

With “miRNA-193a: duplex of the miRNA-193a-3p of SEQ ID NO: 218 (mimic, sense) with antisense strand SEQ ID NO: 219; naked in vitro, formulated in vivo (sense UGGGACUUUGUAGGCCAGUUTT; antisense AACUGGCCUACAAAGUCCCAGU; chemistry not given here; listed as Homo sapiens)” the “Ratio of CD8+ T cells/Treg cells” value ([1]; 2 weeks post start of treatment, 10 mg/kg BIW iv, diamino lipid nanoparticles) was greater than 1, the “Regulatory T cell population (FOXP3+/LAG3+)” value ([1]; after 1 week) was “significant decrease” and the “T-cell function (production of IFNγ and IL-2)” value ([1]; after 1 week, CD45+ tumor cell population) was “significant increase”. The “Regulatory T cell population (FOXP3+/LAG3+)” value ([1]; after 2 weeks) was “significant decrease”, the “T-cell frequency (CD8+)” value ([1]; after 2 weeks) was “significant increase” and the “T-cell function (IFNγ)” value ([1]; after 2 weeks) was “mild induction”. The “CD73 (NT5E) expression level in immune cells” value ([1]; week 1 and week 2, 48h after administration) was “down-regulated”, the “Viability (96 h)” value [2] was “↓↓ (Viability < 50%)” and the “Viability (96 h)” value [3] was “↓↓ (Viability < 50%)”. The “Viability (96 h)” value [4] was “↓↓ (Viability < 50%)”, the “Viability (96 h)” value [5] was “↓↓ (Viability < 50%)” and the “Viability (96 h)” value [6] was “↓↓ (Viability < 50%)”. The “Migration ability of A2058 cells” value [7] was “significantly suppressed migration ability”.
